{
  "source": "patent US20130309325A1",
  "about": "“COMPOSITION AND METHOD FOR PROMOTING JOINT AND BONE HEALTH” (VITAL ANIMAL HEALTH, LLC, priority 2012, published 2013)",
  "origin": "cited, not measured here",
  "tested_on": "young racing quarter horses",
  "key": {"[1]": {"settings": "horses with increased plasma silicon concentrations"}},
  "data": [
    {"substance": "silicon", "values": [
      {"measurement": "average race times", "setting": "[1]", "result": "faster average race times"},
      {"measurement": "distance covered before injury", "setting": "[1]", "result": "covered more distance before injury"},
      {"measurement": "strides completed before injury", "setting": "[1]", "result": "completed more strides before injury"},
      {"measurement": "incidence of bone related injuries", "setting": "supplemental silicon, young racing quarter horses", "result": "decreased the incidence of bone related injuries"}
    ]}
  ]
}
